Source: article PMC11436104 (Toxins, 2024)
Values joined by “and” are separate entries in the source; they are usually repeats but may differ in a detail not shown here. Identical values can stand only once. Like-named read-outs stand apart in the source and are kept apart here. *1 amine or outer side, *2 acyl side, *3 side chain or, on linkers, in order; H or OH if unused. Where a SMILES comes first, the peptide text is derived from it. Bridges are numbered along the chain shown (N, C = ends). [ ]: non-standard residue; d: D form. Adda = CO[C@@H](Cc1ccccc1)[C@@H](C)/C=C(C)/C=C/[C@H](N[*:1])[C@H](C)C(=O)[*:2]; dAsp(3S-Me) = C[C@H](C(=O)[*:3])[C@@H](N[*:1])C(=O)[*:2]; d(γGlu) = O=C(O)[C@@H](CCC(=O)[*:2])N[*:1]; hTyr = N[C@@H](CCc1ccc(O)cc1)C(=O)O; NMeA = CN[C@@H](C)C(=O)O; NMeDha = C=C(NC)C(=O)O; CO = O=C([*:1])[*:2]

What was measured:
NES = assay: Gene expression by quantitative real-time PCR in NHA; format: cell-based, human
Description: (§1) Cells were seeded onto 6-well plates, left to attach for 16 h, and treated with each non-hCCP separately (0.1–10 µM) and the hepatotoxic MC-LR (0.01–1 µM) for 24 h at 37 °C in the CO2 incubator. The total RNA from the cells (0.5–1.0 × 10^6 cells) was isolated using the TRIzol reagent (Invitrogen), and the cDNA was synthesized using 1 μg total RNA with cDNA high-capacity archive kits (Applied Biosystems, Foster City, CA, USA), according to the manufacturer’s protocol.
(§2) The expression levels of TUBA1A, ACTB, NES, and GFAP were quantified using quantitative real-time PCR (ABI 7900 HT Sequence Detection System; Applied Biosystems). TaqMan Universal PCR Master Mix and the following TaqMan Gene Expression Assays were used: TUBA1A: tubulin, alpha 1a, Hs00362387_m1; ACTB: actin, beta, Hs99999903_m1; NES, nestin, Hs00707120_s1; and GFAP, glial fibrillary acidic protein, and Hs00157674_m1 (all from Applied Biosystems). Amplification of a glyceraldehyde 3-phosphate dehydrogenase probe GAPDH (Human Endogenous Controls, Cat. # 4310884E; Applied Biosystems) was performed as an internal control. The conditions for the quantitative real-time PCR were as follows: 50 °C for 2 min, 95 °C for 10 min, 40 cycles of 95 °C for 15 s, and 60 °C for 1 min.
(§3) The data obtained from the TaqMan Gene Expression Assays were analyzed using the ΔΔCt algorithm. Two replicates per concentration and three independent experiments were performed. The statistical significance between the controls and the treated groups was determined using two-tailed Student’s t-tests, where p < 0.05 was statistically significant. In addition, the relative expression was normalized to the housekeeping gene GAPDH (relative quantification), with at least three sample concentrations used for each gene in both untreated cell lines.

ACTB = assay: as above; format: cell-based, human
Description: as §1, §2, §3

TUBA1A = assay: as above; format: cell-based, human
Description: as §1, §2, §3

GFAP = assay: as above; format: cell-based, human
Description: as §1, §2, §3

NHAs = assay: Cell morphology, light microscopy (phase contrast); format: cell-based, human; settings: evident already at 1 µM, 24 h, 100× magnification
[1] = system: NHAs (normal human astrocytes); assay: MTT metabolic activity / cell viability; format: cell-based
Description: Normal human astrocytes (NHAs; Lonza, Walkersville, MD, USA) were grown and maintained in monolayer cultures in Dulbecco’s modified Eagle’s medium (DMEM; Sigma) supplemented with 10% fetal bovine serum (Euroclone, Pero, MI, Italy), 1% penicillin/streptomycin (Euroclone), 2 mM L-glutamine (Euroclone), and 20 mM Hepes (Invitrogen, Carlsbad, CA, USA). The U87-MG human glioblastoma cells (U87-MG cells; American Type Culture Collection, Manassas, VA, USA) were grown and maintained in monolayer cultures in DMEM supplemented with 10% fetal bovine serum, 1% penicillin/streptomycin, 4 mM L-glutamine, and 1% non-essential amino acids (Sigma).
Cell viability was determined using the 3-(4,5-dimethylthiazolyl-2)-2,5-diphenyltetrazolium bromide (MTT) assay, as according to Mosmann. This assay measures the conversion of MTT to its insoluble formazan by the dehydrogenase enzymes of the intact mitochondria of living cells. […]; Nunclon; Nunc, Naperville, IL, USA) and incubated for 16 h at 37 °C for attachment. The cell-growth medium was then replaced by fresh medium containing 0, 0.1, 1, and 10 µM of each CCP and incubated for an additional 24 h. These experiments were performed without using dimethylsulphoxide to best retain the original permeability of the cell membranes. Each experiment included the negative control of cell-growth medium with no additions. Following incubation (CO2 incubator), 20 μL 5 mg/mL MTT was added to each well. The plates were incubated for another 3 h. […] The amount of formazan, which is proportional to the metabolic activity of cells, was quantified spectrophotometrically at 570 nm (reference filter wavelength, 690 nm) using a microplate reader (Synergy MX; BioTek, Winooski, VT, USA). The metabolic activity of the cells was determined by comparing the optical densities of the CCP-treated cells with those of the negative control. Five replicates per concentration and three independent experiments were performed. Student’s t-tests were used to analyze the differences between the treated and control cells using Prism 5 software (GraphPad, Inc., La Jolla, CA, USA), where p < 0.05 was considered to be statistically significant.

[2] = NHA, 0.1 µM CCP, 24 h, relative to non-treated control
[3] = NHA, 1 µM CCP, 24 h, relative to non-treated control
[4] = NHA, 10 µM CCP, 24 h, relative to non-treated control

Row | Structure (SMILES) | Changes in gene expression of NES (NES; [2]) | Changes in gene expression of NES (NES; [3]) | Changes in gene expression of NES (NES; [4]) | Changes in gene expression of ACTB (ACTB; [2]) | Changes in gene expression of ACTB (ACTB; [3]) | Changes in gene expression of ACTB (ACTB; [4]) | Changes in gene expression of TUBA1A (TUBA1A; [2]) | Changes in gene expression of TUBA1A (TUBA1A; [3]) | Changes in gene expression of TUBA1A (TUBA1A; [4]) | Changes in gene expression of GFAP (GFAP; [2]) | Changes in gene expression of GFAP (GFAP; [3]) | Changes in gene expression of GFAP (GFAP; [4]) | morphological changes under light microscopy (NHAs) | metabolic activity vs control ([1]; NHAs, up to 10 µM, 24 h) | Changes in gene expression of NES (NES) | Changes in gene expression of ACTB (ACTB) | Changes in gene expression of TUBA1A (TUBA1A) | Changes in gene expression of GFAP (GFAP) | metabolic activity vs control [1] | cytotoxicity ([1]; 10 µM, read-out: cell viability lower than the control)
1 | CC[C@H](C)[C@@H]1NC(=O)[C@H](Cc2ccc(OC)cc2)N(C)C(=O)[C@H]([C@@H](C)O)N2C(=O)[C@H](CC[C@H]2O)NC(=O)[C@H](CC(C)C)NC(=O)[C@@H](NC(=O)[C@H](CCC(N)=O)NC(=O)[C@H](CCc2ccc(O)cc2)NC(=O)[C@@H](O)CO)[C@@H](C)OC1=O | 1.262 ± 0.077 | 1.203 ± 0.196 | 1.370 ± 0.208 | 0.949 ± 0.140 | 0.988 ± 0.147 | 1.162 ± 0.251 | 0.940 ± 0.162 | 0.824 ± 0.128 | 1.000 ± 0.141 | 1.051 ± 0.351 | 0.947 ± 0.101 | 1.119 ± 0.240 | formation of twisted astrocytic outgrowths | no significant changes from the control | – | – | – | – | – | –
2 | C=C1C(=O)N[C@H](C)C(=O)N[C@@H](CC(C)C)C(=O)N[C@@H](C(=O)O)[C@H](C)C(=O)N[C@@H](CCCNC(=N)N)C(=O)N[C@@H](/C=C/C(C)=C/[C@H](C)[C@H](Cc2ccccc2)OC)[C@H](C)C(=O)N[C@@H](C(=O)O)CCC(=O)N1C [MC-LR, Microcystin-LR, reference compound] (R[Adda][d(γGlu)][NMeDha][dA]L[dAsp(3S-Me)]-OH; lactam N-7) | – | – | – | – | – | – | – | – | – | – | – | – | – | – | 0.917 ± 0.067 and 1.266 ± 0.250 | 1.866 ± 0.844 and 1.071 ± 0.437 | 0.957 ± 0.046 and 0.941 ± 0.025 | 1.395 ± 0.312 and 1.453 ± 0.279 | significantly decreased | ~20%
3 | CC(C)[C@@H]1NC(=O)[C@H](NC(=O)N[C@@H](CCCNC(=N)N)C(=O)O)CCCCNC(=O)[C@H](Cc2ccccc2)NC(=O)[C@H](C)N(C)C(=O)[C@H](CCc2ccc(O)cc2)NC1=O [anabaenopeptin B] ({Arg-CO}-[dK]V[hTyr][NMeA]F; lactam 1-C) | 1.361 ± 0.291 | 1.221 ± 0.338 | 1.388 ± 0.313 | 1.175 ± 0.386 | 0.935 ± 0.157 | 0.934 ± 0.166 | 1.082 ± 0.219 | 0.807 ± 0.100 | 0.895 ± 0.119 | 1.053 ± 0.124 | 1.434 ± 0.180 | 0.918 ± 0.204 | formation of twisted astrocytic outgrowths | no significant changes from the control | – | – | – | – | – | –
4 | CC[C@H](C)[C@@H]1NC(=O)[C@H](NC(=O)N[C@@H](CCCNC(=N)N)C(=O)O)CCCCNC(=O)[C@H](Cc2ccccc2)NC(=O)[C@H](C)N(C)C(=O)[C@H](CCc2ccc(O)cc2)NC1=O [anabaenopeptin F] ({Arg-CO}-[dK]I[hTyr][NMeA]F; lactam 1-C) | 1.345 ± 0.205 | 1.449 ± 0.171 | 1.381 ± 0.173 | 0.824 ± 0.227 | 1.121 ± 0.167 | 0.890 ± 0.184 | 0.941 ± 0.186 | 1.144 ± 0.291 | 0.826 ± 0.036 | 1.326 ± 0.507 | 0.846 ± 0.211 | 1.167 ± 0.250 | – | no significant changes from the control | – | – | – | – | – | –
